According to ChEMBL document CHEMBL1147640, “Antitumor agents. Part 232: Synthesis of cyclosulfite podophyllotoxin analogues as novel prototype antitumor agents” (2004):

What was measured:
Conditions in all cases: Homo sapiens, read-out: ED50 (the source's name)
1A9 = assay: Effective dose of compound against replication of 1A9 cell line was evaluated; format: functional
A549 = assay: Effective dose of compound against replication of A549 cell line was evaluated; format: functional
HCT-8 = assay: Effective dose of compound against replication of HCT-8 cell line was evaluated; format: functional
HOS = assay: Effective dose of compound against replication of HOS cell line was evaluated; format: functional
KB [1] = assay: Effective dose of compound against replication of KB cell line was evaluated; format: functional
KB [2] = assay: Effective dose of compound against replication of KB-Vin cell line was evaluated; format: functional
KB [3] = assay: Effective dose of compound against replication of KB/7d cell line was evaluated; format: functional
MCF7 = assay: Effective dose of compound against replication of MCF-7 cell line was evaluated; format: functional
PC-3 = assay: Effective dose of compound against replication of PC-3 cell line was evaluated; format: functional
SK-MEL-2 = assay: Effective dose of compound against replication of SK-MEL-2 cell line was evaluated; format: functional
U-87 MG = assay: Effective dose of compound against replication of U87MG cell line was evaluated; format: functional, U-87MG ATCC

| SMILES | EC50 (1A9) | EC50 (A549) | EC50 (HCT-8) | EC50 (HOS) | EC50 (KB [1]) | EC50 (KB [2]) | EC50 (KB [3]) | EC50 (MCF7) | EC50 (PC-3) | EC50 (SK-MEL-2) | EC50 (U-87 MG) |
| --- | --- | --- | --- | --- | --- | --- | --- | --- | --- | --- | --- |
| COc1cc([C@@H]2c3cc4c(cc3[C@@H](Nc3ccc([N+](=O)[O-])cc3)[C@H]3COC(=O)[C@H]23)OCO4)cc(OC)c1O | < 1.6 µM | < 0.1 µM | 1.6 µM | < 1.6 µM | 3.5 µM | 4.1 µM | 1.5 µM | 24.5 µM | 8.9 µM | 3 µM | 5.5 µM |
| COc1cc([C@@H]2c3cc4c(cc3[C@@H](Nc3ccc([N+](=O)[O-])cc3)[C@H]3COS(=O)OC[C@H]23)OCO4)cc(OC)c1O (some centres not stated) | 4.2 µM | 8 µM | 10 µM | 6 µM | 5.1 µM | 7.1 µM | 2.9 µM | 2.5 µM | > 20 µM | 7.9 µM | 8 µM |
